# From patent publication US20240027450A1, “COMPOSITIONS AND METHODS FOR […]-COV-2 (COVID-19) AND FOR […]-COV-2-[…] IMM[…]” (QIAGEN SCIENCES LLC, priority 2020, published 2024)
# Tested on: T cells in whole blood samples
# Assay: IFN-γ release (QuantiFERON SARS-CoV-2 tubes, ELISA) in whole blood of vaccinated donors, Example 2
# Format: cell-based, human
substance,measurement,setting,value
phytohemagglutinin [Mit],"IFN-γ, Nil-subtracted","Donor 1, Day 4 after first dose of vaccine",7.19 IU/mL
same,"IFN-γ, Nil-subtracted","Donor 1, Day 11 after first dose of vaccine",>10 IU/mL
same,"IFN-γ, Nil-subtracted","Donor 2, Day 4 after first dose of vaccine",5.74 IU/mL
same,"IFN-γ, Nil-subtracted","Donor 2, Day 11 after first dose of vaccine",>10 IU/mL
same,"IFN-γ, Nil-subtracted","Donor 3, Day 4 after first dose of vaccine",7.07 IU/mL
same,"IFN-γ, Nil-subtracted","Donor 3, Day 11 after first dose of vaccine",>10 IU/mL
same,"IFN-γ, Nil-subtracted","Donor 4, Day 4 after first dose of vaccine",5.78 IU/mL
same,"IFN-γ, Nil-subtracted","Donor 4, Day 11 after first dose of vaccine",>10 IU/mL
same,"IFN-γ, Nil-subtracted","Donor 5, Day 4 after first dose of vaccine",7.13 IU/mL
same,"IFN-γ, Nil-subtracted","Donor 5, Day 11 after first dose of vaccine",>10 IU/mL
same,"IFN-γ, Nil-subtracted","Donor 6, Day 4 after first dose of vaccine",6.59 IU/mL
same,"IFN-γ, Nil-subtracted","Donor 6, Day 11 after first dose of vaccine",>10 IU/mL
same,"IFN-γ, Nil-subtracted","Donor 7, Day 4 after first dose of vaccine, […]",3.01 IU/mL
same,"IFN-γ, Nil-subtracted","Donor 7, Day 11 after first dose of vaccine",>10 IU/mL
same,"IFN-γ, Nil-subtracted","Donor 8, Day 7 after first dose of vaccine",7.13 IU/mL
same,"IFN-γ, Nil-subtracted","Donor 9, Day 0 after first dose of vaccine",6.19 IU/mL
same,"IFN-γ, Nil-subtracted","Donor 9, Day 7 after first dose of vaccine",>10 IU/mL
same,"IFN-γ, Nil-subtracted","Donor 10, Day 7 (Second Dose)",>10 IU/mL
same,"IFN-γ, Nil-subtracted","Donor 10, Day 22 (First-dose)",>10 IU/mL
